Laboratory results as given in PubChem BioAssay (NCI).
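Test compounds were applied to cells in 96-well plates for 48 hours at 5 doses. TGI is the concentration that stops growth completely.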

Legend:
Assay in all cases: NCI anticancer screen, dose series, 48 h
[1] = test system: 786-0 renal
[2] = test system: A549 NSCLC
[3] = test system: ACHN renal
[4] = test system: CAKI-1 renal
[5] = test system: CCRF-CEM leukemia
[6] = test system: COLO 205 colon
[7] = test system: DLD-1 colon
[8] = test system: DMS 114 small cell lung
[9] = test system: DMS 273 small cell lung
[10] = test system: EKVX NSCLC
[11] = test system: HCC-2998 colon
[12] = test system: HCT-116 colon
[13] = test system: HL-60(TB) leukemia
[14] = test system: HOP-18 NSCLC
[15] = test system: HOP-62 NSCLC
[16] = test system: HOP-92 NSCLC
[17] = test system: HT29 colon
[18] = test system: IGROV1 ovarian
[19] = test system: K-562 leukemia
[20] = test system: KM12 colon
[21] = test system: KM20L2 colon
[22] = test system: LOX IMVI melanoma
[23] = test system: LXFL 529 NSCLC
[24] = test system: M14 melanoma
[25] = test system: M19-MEL melanoma
[26] = test system: MALME-3M melanoma
[27] = test system: MOLT-4 leukemia
[28] = test system: NCI-H226 lung
[29] = test system: NCI-H23 lung
[30] = test system: NCI-H460 lung
[31] = test system: NCI-H522 lung
[32] = test system: OVCAR-3 ovarian
[33] = test system: OVCAR-4 ovarian
[34] = test system: OVCAR-5 ovarian
[35] = test system: OVCAR-8 ovarian
[36] = test system: RPMI-8226 leukemia
[37] = test system: RXF 393 renal
[38] = test system: RXF-631 renal
[39] = test system: SF-268 CNS
[40] = test system: SF-295 CNS
[41] = test system: SF-539 CNS
[42] = test system: SK-MEL-2 melanoma
[43] = test system: SK-MEL-28 melanoma
[44] = test system: SK-MEL-5 melanoma
[45] = test system: SK-OV-3 ovarian
[46] = test system: SN12C renal
[47] = test system: SNB-19 CNS
[48] = test system: SNB-75 CNS
[49] = test system: SNB-78 CNS
[50] = test system: SR leukemia
[51] = test system: SW-620 colon
[52] = test system: TK-10 renal
[53] = test system: U251 CNS
[54] = test system: UACC-257 melanoma
[55] = test system: UACC-62 melanoma
[56] = test system: UO-31 renal
[57] = test system: XF 498 CNS
[58] = test system: A498 renal
[59] = test system: BT-549 breast
[60] = test system: DU-145 prostate
[61] = test system: HCT-15 colon
[62] = test system: HS 578T breast
[63] = test system: MCF7 breast
[64] = test system: MDA-MB-231 breast
[65] = test system: MDA-MB-435
[66] = test system: MDA-N
[67] = test system: NCI/ADR-RES ovarian
[68] = test system: PC-3 prostate
[69] = test system: T-47D breast

Compound: CCCCCCCCCC1CC(=O)OC2=C1C(=O)CCC2 (stereo unspecified)
- TGI [1]: > 100 µM
- TGI [2]: > 100 µM
- TGI [3]: > 100 µM
- TGI [4]: > 100 µM
- TGI [5]: > 100 µM
- TGI [6]: > 100 µM
- TGI [7]: > 100 µM
- TGI [8]: > 100 µM
- TGI [9]: > 100 µM
- TGI [10]: > 100 µM
- TGI [11]: > 100 µM
- TGI [12]: > 100 µM
- TGI [13]: > 100 µM
- TGI [14]: > 100 µM
- TGI [15]: > 100 µM
- TGI [16]: > 100 µM
- TGI [17]: > 100 µM
- TGI [18]: > 100 µM
- TGI [19]: > 100 µM
- TGI [20]: > 100 µM
- TGI [21]: > 100 µM
- TGI [22]: > 100 µM
- TGI [23]: > 100 µM
- TGI [24]: > 100 µM
- TGI [25]: > 100 µM
- TGI [26]: > 100 µM
- TGI [27]: > 100 µM
- TGI [28]: > 100 µM
- TGI [29]: > 100 µM
- TGI [30]: > 100 µM
- TGI [31]: > 100 µM
- TGI [32]: > 100 µM
- TGI [33]: > 100 µM
- TGI [34]: > 100 µM
- TGI [35]: > 100 µM
- TGI [36]: > 100 µM
- TGI [37]: > 100 µM
- TGI [38]: > 100 µM
- TGI [39]: > 100 µM
- TGI [40]: > 100 µM
- TGI [41]: > 100 µM
- TGI [42]: > 100 µM
- TGI [43]: > 100 µM
- TGI [44]: > 100 µM
- TGI [45]: > 100 µM
- TGI [46]: > 100 µM
- TGI [47]: > 100 µM
- TGI [48]: > 100 µM
- TGI [49]: > 100 µM
- TGI [50]: > 100 µM
- TGI [51]: > 100 µM
- TGI [52]: > 100 µM
- TGI [53]: > 100 µM
- TGI [54]: > 100 µM
- TGI [55]: > 100 µM
- TGI [56]: > 100 µM
- TGI [57]: > 100 µM

Compound: COc1cc2[nH]c3c(c2cc1OC)CCN[C@@]31CC[C@@]2(CC3c4c(cc(OC)c(O)c42)CCN3C)C[C@@H]1OC (stereo partly specified)
- TGI [1]: > 100 µM
- TGI [58]: > 96.9 µM
- TGI [2]: > 100 µM
- TGI [3]: > 100 µM
- TGI [59]: > 71.3 µM
- TGI [4]: > 79.5 µM
- TGI [5]: 94.5 µM
- TGI [6]: 38.4 µM
- TGI [7]: > 100 µM
- TGI [8]: 37.2 µM
- TGI [9]: > 100 µM
- TGI [60]: > 100 µM
- TGI [10]: > 46.4 µM
- TGI [11]: > 83.4 µM
- TGI [12]: > 87.4 µM
- TGI [61]: > 100 µM
- TGI [13]: 30.7 µM
- TGI [14]: > 81.7 µM
- TGI [15]: > 100 µM
- TGI [16]: 69.3 µM
- TGI [62]: > 52.5 µM
- TGI [17]: > 91.2 µM
- TGI [18]: > 100 µM
- TGI [19]: 56.5 µM
- TGI [20]: > 85 µM
- TGI [21]: 86.3 µM
- TGI [22]: 41.4 µM
- TGI [23]: > 100 µM
- TGI [24]: 34.1 µM
- TGI [25]: 40 µM
- TGI [26]: 33.8 µM
- TGI [63]: > 100 µM
- TGI [64]: > 100 µM
- TGI [65]: 41.4 µM
- TGI [66]: 35.9 µM
- TGI [27]: > 56.2 µM
- TGI [28]: > 100 µM
- TGI [29]: > 100 µM
- TGI [30]: > 100 µM
- TGI [31]: 66.7 µM
- TGI [67]: > 85.1 µM
- TGI [32]: > 94.8 µM
- TGI [33]: > 100 µM
- TGI [34]: > 100 µM
- TGI [35]: > 100 µM
- TGI [68]: > 100 µM
- TGI [36]: > 56.2 µM
- TGI [37]: 77.9 µM
- TGI [38]: 25.2 µM
- TGI [39]: > 100 µM
- TGI [40]: 47.3 µM
- TGI [41]: 28.4 µM
- TGI [42]: 40.6 µM
- TGI [43]: 33.5 µM
- TGI [44]: 30.3 µM
- TGI [45]: > 100 µM
- TGI [46]: > 100 µM
- TGI [47]: > 100 µM
- TGI [48]: 54 µM
- TGI [49]: > 100 µM
- TGI [50]: 36.6 µM
- TGI [51]: > 92.2 µM
- TGI [69]: 51.8 µM
- TGI [52]: 84.5 µM
- TGI [53]: > 91.4 µM
- TGI [54]: 32.9 µM
- TGI [55]: 45.3 µM
- TGI [56]: 57.8 µM
- TGI [57]: 32.4 µM
